The values that follow come from US9399625B2, “Acridone compounds” (Oregon Health & Science University, priority 2006, dated 2016).

pIC50, pKi: −log10 of the molar value. Entries after “also recorded” stand apart in the source; their conditions may differ. Read-outs that look alike come from different tables or passages of the source.

In series [1] the test system is MDR P. falciparum strain Dd2. The series can be described thus: In vitro chemosensitization to chloroquine (RMI), strain Dd2. It counts as cell-based. To be noted: Plasmodium falciparum, DD2, read-out: IC50 of CQ in combination with 5 μM of selected drug, Dd2.
In series [2] the test system is CQ-sensitive D6 strain of P. falciparum. The series can be described thus: In vitro antimalarial activity, SYBR Green MSF assay, D6. It counts as cell-based. To be noted: Plasmodium falciparum. From the text:
(§1) This example describes the screening of disclosed antimalarial acridones against the CQ-sensitive D6 strain and the MDR Dd2 strain of P. falciparum for in vitro antimalarial activity.

Series [3] deals with CQS (D6) strain of P. falciparum. The experiment in a line: In vitro chemosensitizing effects of acridones (RMI), D6. It counts as cell-based. To be noted: Plasmodium falciparum, D6, read-out: IC50 of CQ, D6. From the text:
(§2) Antimalarial drug combinations can be assessed in a number of ways. For example, the response modification index (RMI) can be calculated by the following formula: RMI=IC50 of drug A in the presence of drug B/IC50 of drug A alone, where drug A is an existing antimalarial and B is a single sub-inhibitory concentration of the acridone candidate. An RMI less than 1.0 represents chemosensitization and possible synergy. A second method of evaluating combination therapies is Fractional Inhibitory Concentration, (e.g., FIC50=[IC50 of Drug A in the presence of a fixed amount of Drug B]/[IC50 of Drug A alone]). RMI and FIC are helpful measures for side-by-side comparison of multiple chemosensitizer drugs at fixed concentrations, but neither distinguishes between additive and synergistic effects, or describes effects over a wide concentration range. Standard FIC indices (FIC of Drug A+FIC of Drug B) distinguish synergistic, additive and antagonistic interactions, but are dependent on the correct estimation of the expected effect of the fixed test drug.

Series [4] concerns MDR (Dd2) strain of P. falciparum. The experiment in a line: In vitro chemosensitizing effects of acridones (RMI), Dd2. Particulars: Plasmodium falciparum, DD2, read-out: IC50 of CQ, Dd2. The format is cell-based.
Description: as §2

For series [5], the system named is MDR P. falciparum strain W2. The series can be described thus: In vitro chemosensitization to chloroquine (RMI), strain W2. It counts as cell-based. Particulars: Plasmodium falciparum, W2, read-out: IC50 of CQ in combination with 5 μM of selected drug, W2.
Series [6] is described as follows: In vitro heme aggregation assay. To be noted: 25 mM phosphate buffer, pH 4.8, 30 minutes at room temperature. As to the method: This example describes the in vitro inhibition of heme aggregation by xanthone 2,3,4,5,6-pentahydroxyxanthone. Conditions: 25 mM Phosphate buffer, pH 5.2, 1 hour incubation at 37° C. Further details of this assay are described by Ignatushchenko et al. in Xanthones as antimalarial agents; studies of a possible mode of action.
This example describes visual evidence that acridones disclosed herein form soluble complexes with heme under mildly acidic conditions. […] Employing the same assay conditions, heme was mixed with T2 or T3.5 under mildly acidic conditions (25 mM phosphate buffer, pH 4.8) and monitored. […] Without being limited to theory, it is believed that for some compounds inhibition of heme aggregation in vitro can be correlated with inhibition of hemozoin formation in vivo.

Series [7] in a line: Heme-binding affinity (spectrophotometric titration). To be noted: Table 3. The text has this:
With continued reference to FIG. 1, panel B illustrates the spectrophotometric titration curve of the heme:3,6-bis-ε-(N,N-diethylamino)-amyloxy xanthone (C5) complex. The apparent binding constant was derived from the best fit (solid line) of a 1:1 (heme dimer:C5) association model. […] Panels A and B show the fluorescence localization of C5 and LysoTracker Red, respectively.

Series [8] relates to MDR Dd2 strain of P. falciparum. The experiment in a line: In vitro antimalarial activity, SYBR Green MSF assay, Dd2. The format is cell-based. To be noted: Plasmodium falciparum.
Description: as §1
As shown in Table 3 and Table 4, selected soluble acridone derivatives were screened for antimalarial activity against the CQ-sensitive D6 and the MDR Dd2 strains of P. falciparum.

In series [9] the test system is murine splenic lymphocytes (MSLCs). The experiment in a line: Cytotoxicity by Alamar Blue assay. Particulars: for IVTI: ratio of cytotoxicity IC50 (vs. MSLCs) to antimalarial IC50 against D6; for pIC50: cytotoxicity.
Series [10] relates to late trophozoites in PRBCs. The experiment in a line: Morphological changes in acridone treated parasites (blood smears, light microscopy). To be noted: compared to drug-free controls. From the text:
This example provides morphological changes in acridone treated parasites. […] These preliminary evaluations of blood smears by light microscopy indicate that acridones cause alterations in parasite morphology and viability.

The target in series [11] is T1, recombinant human dopamine transporter (hDAT) (Homo sapiens, UniProt Q01959).
T1 construct: expressed in transfected cells
T1 sequence (Q01959 whole entry): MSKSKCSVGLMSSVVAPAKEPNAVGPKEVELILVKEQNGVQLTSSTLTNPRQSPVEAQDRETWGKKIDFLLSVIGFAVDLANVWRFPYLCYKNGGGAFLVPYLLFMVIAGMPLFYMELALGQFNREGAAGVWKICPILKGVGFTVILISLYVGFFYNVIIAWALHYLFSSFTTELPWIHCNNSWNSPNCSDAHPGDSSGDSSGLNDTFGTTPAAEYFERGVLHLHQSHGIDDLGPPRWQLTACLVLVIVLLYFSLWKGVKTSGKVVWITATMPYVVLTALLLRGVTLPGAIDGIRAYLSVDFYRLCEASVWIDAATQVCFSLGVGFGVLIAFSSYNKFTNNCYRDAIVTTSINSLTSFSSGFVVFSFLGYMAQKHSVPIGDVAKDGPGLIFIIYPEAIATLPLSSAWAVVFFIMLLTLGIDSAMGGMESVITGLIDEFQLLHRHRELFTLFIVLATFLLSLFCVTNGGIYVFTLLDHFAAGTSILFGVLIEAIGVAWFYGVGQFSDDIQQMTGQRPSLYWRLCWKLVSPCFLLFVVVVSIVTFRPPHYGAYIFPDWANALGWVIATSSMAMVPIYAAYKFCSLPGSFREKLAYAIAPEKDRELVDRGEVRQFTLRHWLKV
The experiment in a line: [125I]RTI-55 binding, HEK-hDAT.

For series [12], the target named is T2, recombinant human norepinephrine transporter (hNET) (Homo sapiens, UniProt P23975).
T2 construct: expressed in transfected cells
T2 sequence (P23975 whole entry): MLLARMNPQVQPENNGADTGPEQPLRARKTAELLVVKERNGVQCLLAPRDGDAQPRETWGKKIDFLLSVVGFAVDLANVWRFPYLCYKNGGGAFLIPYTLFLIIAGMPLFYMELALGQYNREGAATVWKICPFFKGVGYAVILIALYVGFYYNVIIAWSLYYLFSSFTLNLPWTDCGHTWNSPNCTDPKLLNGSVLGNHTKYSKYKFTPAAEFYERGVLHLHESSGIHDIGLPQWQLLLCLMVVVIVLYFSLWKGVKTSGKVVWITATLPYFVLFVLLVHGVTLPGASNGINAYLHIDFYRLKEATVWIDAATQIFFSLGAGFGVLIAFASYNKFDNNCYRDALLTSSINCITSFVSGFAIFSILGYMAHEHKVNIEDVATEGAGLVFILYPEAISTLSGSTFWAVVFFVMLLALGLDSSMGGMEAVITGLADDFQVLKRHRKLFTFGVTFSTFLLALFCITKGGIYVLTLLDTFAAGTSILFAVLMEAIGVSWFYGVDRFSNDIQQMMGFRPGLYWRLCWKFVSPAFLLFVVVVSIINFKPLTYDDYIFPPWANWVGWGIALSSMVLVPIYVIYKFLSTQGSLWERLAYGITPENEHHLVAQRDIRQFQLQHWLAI
The series can be described thus: [125I]RTI-55 binding, HEK-hNET.

The next series concerns P. yoelii sporozoites. The series can be described thus: Prophylactic efficacy, murine sporozoite-induced malaria model. It counts as in vivo. Particulars: 160 mg/kg ig on days −1, 0 and 1. As to the method: This example evaluates the prophylactic efficacy of the acridone T2. T2 was evaluated in a murine P. yoelii sporozoite-induced malaria model to determine prophylactic efficacy.
Mice were treated with 160 mg/kg ig, on days −1, 0, and 1 with injection of 250,000 sporozoites on day 0.

Another series has as its system P. berghei (ANKA). The experiment in a line: Efficacy vs patent P. berghei infection in mice.
A further series deals with P. yoelii (K). The experiment in a line: Curative efficacy vs patent infection, three once-daily doses (adapted 6-day Thompson test).
For a further series, the system named is P. yoelii. The experiment in a line: Single-dose ig efficacy after patent infection in mice. Particulars: single ig dose 100 mg/kg; HCl salt. The format is in vivo.
Series [13] can be described thus: General toxicity in treated mice. To be noted: 256 mg/kg/day×3 days.
A further series deals with MDR P. falciparum Dd2. The series can be described thus: Fixed-ratio combination (isobologram) with quinoline antimalarials, Dd2. It counts as cell-based. To be noted: isobolar analysis. The method, then: In one embodiment, synergism is assessed herein using fixed-ratio combinations that provide information over a wide range of drug concentrations. […] If these stock solutions were termed Drug A and Drug B, then six final stock solutions were prepared from this initial stock: Drug A alone, Drug B alone, and volume:volume mixtures of Drug A and B in the following ratios: 4:1, 3:2, 2:3, and 1:4. Two-fold dilutions of each of the six final stock solutions were done robotically across a 96-well plate in quadruplicate. Subsequent steps were typical of standard drug-susceptibility methods. […] The data pointed from all six curves were then analyzed using Calcusyn software (commercially available from BioSoft, Cambridge, UK) for determination of synergy. Output from this analysis included FIC values used to plot isobolograms as well as a rigorously determined synergy index, termed the combination index (CI) (Calcusyn). FIC50 isobolograms, CI's and tabulation of IC90 component drug concentrations were reported.
The combinations of the acridones T3.5 and T2 with quinine were assessed for synergism.
FIG. 6 is an isobologram charting the efficacy of quinine in combination with T3.5 in vitro against CQ-sensitive (D6) and MDR (Dd2) P. falciparum.

Series [14] concerns the target T3, recombinant human serotonin transporter (hSERT) (Homo sapiens, UniProt P31645).
T3 construct: expressed in transfected cells
The series can be described thus: [125I]RTI-55 binding, HEK-hSERT.

The subject of series [15] is CQ-sensitive P. yoelii (strain K). The series can be described thus: 4-day suppressive test in female CF-1 mice. It counts as in vivo. As to the method:
This example describes evaluation of the in vivo antimalarial efficacy of the disclosed acridones against CQ-sensitive P. yoelii (strain K) in female CF-1 mice. Illustrated in FIG. 2, are the results of a 4-day suppressive test with acridone T2 (3-(2-diethylaminoethoxy)-6-chloro-9-acridone)) in PBS administered intragastrically (ig) by gavage one hour after infection and then once daily, 24, 48 and 72 hours later.
This example describes evaluation of acridones in rodent models of blood-stage malaria.

Where [16] appears, read: D6, Table 2, average of 4 independent experiments, read-out: IC50, D6.
[17] abbreviates: D6, Table 3, MSF assay, read-out: IC50 P. falciparum D6.
Setting [18] is: DD2, Table 2, average of 4 independent experiments, read-out: IC50, Dd2.
[19] abbreviates: DD2, Table 3, MSF assay, read-out: IC50 P. falciparum Dd2.

T3 sequence (P31645 whole entry): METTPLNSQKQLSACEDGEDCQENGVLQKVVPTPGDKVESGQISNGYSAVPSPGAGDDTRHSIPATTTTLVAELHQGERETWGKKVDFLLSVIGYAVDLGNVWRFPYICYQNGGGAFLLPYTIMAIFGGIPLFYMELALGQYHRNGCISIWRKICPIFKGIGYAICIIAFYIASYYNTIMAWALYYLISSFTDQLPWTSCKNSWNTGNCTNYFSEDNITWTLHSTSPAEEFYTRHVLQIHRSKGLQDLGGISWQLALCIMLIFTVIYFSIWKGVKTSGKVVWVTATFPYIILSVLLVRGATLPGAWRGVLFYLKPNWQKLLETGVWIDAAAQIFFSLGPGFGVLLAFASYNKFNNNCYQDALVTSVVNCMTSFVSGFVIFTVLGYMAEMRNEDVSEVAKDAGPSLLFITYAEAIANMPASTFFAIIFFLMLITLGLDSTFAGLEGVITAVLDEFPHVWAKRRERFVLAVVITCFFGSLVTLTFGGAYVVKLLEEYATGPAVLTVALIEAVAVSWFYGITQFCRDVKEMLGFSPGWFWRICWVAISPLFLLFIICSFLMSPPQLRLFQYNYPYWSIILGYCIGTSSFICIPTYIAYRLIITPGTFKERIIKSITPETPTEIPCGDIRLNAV

Usually pIC50 stands for −log10 of the IC50, conventionally taken in molar units. Take `CCN(CC)CCCC(C)Nc1ccnc2cc(Cl)ccc12` (centres unmarked) [Chloroquine, reference compound]: the pIC50 in series [1] was 7.00; in series [2] (D6, read-out: IC50, D6), 8.17; in series [2] (D6, read-out: IC50 P. falciparum D6), 8.08; in series [2] (D6, read-out: IC50 of CQ, CQ-sensitive strain D6), 7.82; in [3], 8.08; in [4] it was 6.91. For the same molecule, the pIC50 is 6.54 in series [5]; 6.88 in series [8] (DD2, read-out: IC50, Dd2); 6.91 in [8] (DD2, read-out: IC50 P. falciparum Dd2). The “formation of heme aggregates” value in series [6] is on record as “fails to prevent heme aggregation”. In addition, the “Heme-binding Ka” value in [7] is listed as 5.5 10^4 M^−1.

For `CCN(CC)CCOc1ccc2c(=O)c3ccccc3[nH]c2c1` [T1, 3-(2-diethylaminoethoxy)-9-acridone], the pIC50 in [2] (setting [16]) is 6.78; in series [2] (setting [17]) it was 6.78; in series [9] (read-out: IC50, MSLCs, Table 2) it was less than 4.60; in [9] (read-out: IC50 MSLCs, Table 3), less than 4.60; in [8] (setting [18]), 6.80; in series [8] (setting [19]), 6.80. The IVTI in series [9] was more than 150. Also, the “appearance of treated late trophozoites” value in [10] was “pale staining with loss of intracellular definition and fragmented hemozoin”.

As a reminder, the pKi is the negative decadic logarithm of the Ki, by convention in mol/L. The ED50 is the dose at which the effect has come halfway, by size or by number of responders. High values mean a need for a large dose, low ones an effect at a small dose. Regarding `CCN(CC)CCOc1ccc2c(=O)c3ccc(Cl)cc3[nH]c2c1` [T2, 3-(2-diethylaminoethoxy)-6-chloro-9-acridone], the pKi in [11] is less than 5.00; in [12], 5.23; in series [14], less than 5.00. Further, the pIC50 in series [2] (setting [16]) is 7.74; in series [2] (setting [17]), 7.59; in series [9] (read-out: IC50, MSLCs, Table 2) it was less than 4.60; in series [9] (read-out: IC50 MSLCs, Table 3) it was less than 4.60; in series [8] (setting [18]), 7.77; in series [8] (setting [19]), 7.48. In the series on P. yoelii sporozoites, the toxicity entry is on record as “No toxicity was observed”. Further, the “treated animals parasite-free on days 6, 11 and 14” value with P. yoelii sporozoites is listed as “all 5 treated animals to be parasite-free”. The ED90 with P. berghei (ANKA) (P. berghei (ANKA)) came out at 80 mg/kg/day; in series [15] (ig by gavage, once daily, 4 days), 42 mg/kg. For the same molecule, the ED50 with P. berghei (ANKA) (patent P. berghei (ANKA) infection, by gavage) was 55 mg/kg/day; in series [15] (Plasmodium yoelii, po, 96 h, ig by gavage, once daily, 4 days), 27.1 mg/kg. Also, in the series on P. yoelii (K) (256 mg/kg/day), the “long-term outcome (parasitemia at 30 days, cure)” value is recorded as “long-term cure”. The “ED50 and ED90, gavage (ig) dosing, in words” value in the series with P. yoelii (K) (ig, three once-daily doses) is on record as “comparable”. The “ED50 (ip)” value in the series on P. yoelii (K) (ip once daily for three days) was 38 mg/kg/day. Also, in the series on P. yoelii (K) (ip once daily for three days), the “ED90 (ip)” value worked out at 66 mg/kg/day. For the same molecule, the “cytotoxicity at the highest tested concentration” value in series [9] (25 μM) was “no evidence of cytotoxicity”. The IVTI in series [9] is on record as more than 1389. In addition, in the series on P. yoelii, the “reduction of parasitemia at 72 hours” value is “greater than 90%”. Further, the “formation of heme aggregates” value in [6] is on record as “prevent the formation of heme aggregates”. In [13], this molecule had a weight loss of 10%. Besides, the “Heme-binding Ka” value in series [7] is recorded as 4.3 10^4 M^−1. The interaction with quinine entry with MDR P. falciparum Dd2 is “not and no evidence of synergy”. For the same molecule, in series [15] (200 mg/kg/day), the “mice parasite-free to the end of the observation period” value is “all of the four mice in that group remained parasite-free”. For the same molecule, the suppression of parasitemia entry in series [15] (200 mg/kg/day, assessed 24 hours after the last dose) is listed as “completely suppressed parasitemia; also recorded: complete suppression”.
